Test results taken from article PMC5479785, “Tandem malonate-based glucosides (TMGs) for membrane protein structural studies” (Scientific Reports, 2017).

Assays:
MelBSt [1] = molecular target: T1, MelBSt (Salmonella enterica, UniProt P30878); assay: reversal of Trp to D2G FRET by displacement; type: biochemical; details: excess melibiose against 10 μM D2G, 100 mM KPi, 100 mM NaCl, pH 7.5, DDM; competitive
T1 construct: gene melB; wild type, C-terminal 10-His tag, plasmid pK95ΔAHB/WT MelBSt/CH10; detergent extract of RSO vesicles of E. coli DW2
T1 sequence (P30878 whole entry): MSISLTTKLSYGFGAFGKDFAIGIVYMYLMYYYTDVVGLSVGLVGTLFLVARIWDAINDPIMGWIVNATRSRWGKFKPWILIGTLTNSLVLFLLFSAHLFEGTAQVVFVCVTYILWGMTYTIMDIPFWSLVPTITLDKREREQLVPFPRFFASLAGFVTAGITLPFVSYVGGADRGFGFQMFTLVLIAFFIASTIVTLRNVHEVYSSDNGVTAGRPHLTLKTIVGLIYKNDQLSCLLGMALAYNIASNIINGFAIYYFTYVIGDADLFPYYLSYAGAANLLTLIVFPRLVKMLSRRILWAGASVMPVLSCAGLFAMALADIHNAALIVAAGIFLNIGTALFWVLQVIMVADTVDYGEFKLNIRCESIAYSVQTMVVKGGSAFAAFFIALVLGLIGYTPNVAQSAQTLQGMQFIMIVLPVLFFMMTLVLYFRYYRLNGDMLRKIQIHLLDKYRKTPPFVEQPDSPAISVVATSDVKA

MelBEc [2] = molecular target: T2, MelBEc (Escherichia coli, UniProt P02921); assay: reversal of Trp to D2G FRET by displacement; type: biochemical; details: excess melibiose against 10 μM D2G, 100 mM KPi, 100 mM NaCl, pH 7.5, TMG-A12 or TMG-A13; competitive
T2 construct: gene melB; expressed in E. coli DW2 (ΔmelB ΔlacZY); detergent extract of RSO membrane vesicles
T2 sequence (P02921 2-473): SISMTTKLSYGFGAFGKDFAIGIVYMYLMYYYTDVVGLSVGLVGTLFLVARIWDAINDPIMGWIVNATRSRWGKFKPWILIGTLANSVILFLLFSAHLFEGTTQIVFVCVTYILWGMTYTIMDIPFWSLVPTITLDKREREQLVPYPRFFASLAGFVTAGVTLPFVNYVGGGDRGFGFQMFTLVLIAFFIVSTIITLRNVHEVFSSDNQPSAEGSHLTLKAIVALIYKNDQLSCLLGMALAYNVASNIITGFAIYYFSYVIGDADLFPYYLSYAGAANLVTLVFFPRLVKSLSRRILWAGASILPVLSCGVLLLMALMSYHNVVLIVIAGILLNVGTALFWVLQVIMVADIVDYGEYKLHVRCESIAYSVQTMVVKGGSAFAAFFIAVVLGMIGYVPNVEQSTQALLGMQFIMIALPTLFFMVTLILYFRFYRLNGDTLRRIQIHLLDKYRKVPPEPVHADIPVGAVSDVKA

MelBEc [3] = molecular target: T2, MelBEc; assay: Trp to D2G FRET in detergent extract of membrane vesicles; type: biochemical; details: 10 μM D2G, 100 mM KPi, 100 mM NaCl, pH 7.5, TMG-A12 or TMG-A13; fluorescent ligand
MelBSt [4] = molecular target: T1, MelBSt; assay: as above; type: biochemical; details: 10 μM D2G, 100 mM KPi, 100 mM NaCl, pH 7.5, DDM; fluorescent ligand
β2AR = molecular target: T3, β2AR (Homo sapiens, UniProt P07550); assay: radioligand binding, G-50 column separation; details: 10 nM [3H]-DHA, 20 mM HEPES pH 7.5, 100 mM NaCl, 0.5 mg/mL BSA, DDM or TMG detergent; antagonist; labelled compound
T3 construct: gene ADRB2; expressed in Sf9 insect cells (baculovirus), purified in DDM
T3 sequence (P07550 whole entry): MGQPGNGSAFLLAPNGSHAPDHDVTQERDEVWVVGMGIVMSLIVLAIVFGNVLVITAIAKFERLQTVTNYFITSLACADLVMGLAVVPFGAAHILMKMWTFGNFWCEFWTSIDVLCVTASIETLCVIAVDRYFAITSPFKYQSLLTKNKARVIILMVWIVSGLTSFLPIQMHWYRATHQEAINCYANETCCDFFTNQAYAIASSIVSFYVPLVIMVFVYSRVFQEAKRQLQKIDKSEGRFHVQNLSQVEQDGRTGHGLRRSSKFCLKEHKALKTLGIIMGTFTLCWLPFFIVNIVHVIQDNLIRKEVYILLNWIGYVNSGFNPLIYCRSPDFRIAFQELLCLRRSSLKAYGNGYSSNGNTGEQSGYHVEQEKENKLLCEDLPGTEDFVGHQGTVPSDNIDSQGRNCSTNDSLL

Structure (SMILES): OC[C@H]1O[C@H](OC[C@H]2OC(O)[C@H](O)[C@@H](O)[C@@H]2O)[C@H](O)[C@@H](O)[C@H]1O (some centres unmarked) [melibiose]
- FRET reversal (MelBSt [1]): Upon addition of melibiose, the DDM-solubilized MelBSt gave a large reversal in the FRET signal
- FRET reversal (MelBEc [2]): reversed by adding a non-fluorescent sugar substrate (i.e., melibiose)

Structure (SMILES): CN(C)c1cccc2c(S(=O)(=O)NCCS[C@@H]3O[C@H](CO)[C@H](O)[C@H](O)[C@H]3O)cccc12 [D2G, 2′-(N-dansyl)aminoalkyl-1-thio-β-D-galactopyranoside]
- Trp→D2G FRET (MelBEc [3]): TMG-A12 or TMG-A13 resulted in a functional MelBEc as demonstrated by large changes in FRET signal
- Trp→D2G FRET (MelBSt [4]): a functional MelBSt gives an increase in fluorescence intensity induced by Trp→ D^2G FRET

Structure (SMILES): CCCc1ccccc1OCC(O)CNC(C)C (centres unmarked) [[3H]-dihydroalprenolol]
- [3H]-DHA binding (β2AR): receptor stability was assessed via a ligand binding assay using the antagonist, [^3H]-dihydroalprenolol
